US20070128217A1 (priority 2003, published 2007)

Assays:
[1] = tested on: control sera (pooled serum of ten healthy LUMC hospital workers; commercial negative donor pooled serum from the Dutch bloodbank); format: binding, human; set-up: Binding of Control serum LUMC to linear peptides / Binding of Control serum Blood-bank to linear peptides / Binding of Control serum LUMC to looped peptides / Binding of Control Serum Blood-Bank to Looped peptides / Binding of Control serum LUMC to linear peptides of the protein M of SARS-CoV Urbani / Binding of Control serum Blood-bank to linear peptides of the protein M of SARS-CoV Urbani / Binding of Control serum LUMC to looped peptides of the protein M of SARS-CoV Urbani / Binding of Control Serum Blood-Bank to Looped peptides of the protein M of SARS-CoV Urbani: unit not given here
[2] = tested on: antibodies in sera from SARS patients (sera 1a, 1b, 2, 6, 37, 62, London, SARS-yellow, SARS-green); format: binding, human; set-up: Binding of serum 6 to linear peptides of protein X1 of SARS-CoV Urbani / Binding of serum 37 to linear peptides of protein X1 of SARS-CoV Urbani / Binding of serum 6 to looped/cyclic peptide (PEPSCAN-ELISA) / Binding of serum 37 to looped/cyclic peptide (PEPSCAN-ELISA) / Binding of serum 37 to looped/cyclic peptides of protein X1 of SARS-CoV Urbani / Binding of serum 6 to linear peptides of protein X2 / Binding of serum 37 to linear peptides of protein X2 / Binding of serum 37 to looped/cyclic peptides of protein X2 of SARS-CoV Urbani / Binding of serum 6 to linear peptides of protein M of SARS-CoV Urbani / Binding of serum 37 to linear peptides of protein M of SARS-CoV Urbani / Binding of serum 6 to looped/cyclic peptides of protein M of SARS-CoV Urbani / Binding of serum 37 to looped/cyclic peptides of protein M of SARS-CoV Urbani / Binding of serum 6 to linear peptides of protein X3 of SARS-CoV Urbani / Binding of serum 37 to linear peptides of protein X3 of SARS-CoV Urbani / Binding of serum 37 to looped/cyclic peptides of protein X3 of SARS-CoV Urbani / Binding of serum 6 to linear peptides of protein X4 of SARS-CoV Urbani / Binding of serum 37 to linear peptides of protein X4 of SARS-CoV Urbani / Binding of serum 37 to looped/cyclic peptides of protein X4 of SARS-CoV Urbani / Binding of serum 6 to linear peptides of protein X5 of SARS-CoV Urbani / Binding of serum 37 to linear peptides of protein X5 of SARS-CoV Urbani / Binding of serum 37 to looped/cyclic peptides of protein X5 of SARS-CoV Urbani / Binding of serum 6 to linear peptides of protein N of SARS-CoV Urbani / Binding of serum 37 to linear peptides of protein N of SARS-CoV Urbani / Binding of serum 6 to linear peptide (PEPSCAN-ELISA) / Binding of serum 1a to looped/cyclic peptides of protein N of SARS-CoV Urbani / Binding of serum 1b to looped/cyclic peptides of protein N of SARS-CoV Urbani / Binding of serum 2 to looped/cyclic peptides of protein N of SARS-CoV Urbani / Binding of serum 6 to looped/cyclic peptides of protein N of SARS-CoV Urbani / Binding of serum 37 to looped/cyclic peptides of protein N of SARS-CoV Urbani / Binding of serum 62 to looped/cyclic peptides of protein N of SARS-CoV Urbani / Binding of serum London to looped/cyclic peptides of protein N of SARS-CoV Urbani / Binding of serum SARS-green to looped/cyclic peptides of protein N of SARS-CoV Urbani: unit not given here
[3] = tested on: rabbit serum obtained by immunizing a rabbit with the SARS-CoV strain Frankfurt 1; format: binding; set-up: Binding of a rabbit serum to linear peptides / Binding of a rabbit serum to looped peptides / Rabbit serum linear peptides / Rabbit serum looped peptides / Binding of a rabbit serum to linear peptides of protein N of SARS-CoV Urbani (Rabbit serum linear peptides) / Binding of a rabbit serum to looped/cyclic peptides of protein N of SARS-CoV Urbani (Rabbit serum looped peptides): unit not given here

RSVSPKLFIRQEEVQ
Binding of Control Serum Blood-Bank to Looped peptides [1]: 0.6 | Binding of Control serum Blood-bank to linear peptides [1]: 0.5 | Binding of Control serum LUMC to linear peptides [1]: 0.4 | Binding of Control serum LUMC to looped peptides [1]: 0.7 | Binding of serum 1a to linear peptides of protein X4 of SARS-CoV Urbani [2]: 0.7 | Binding of serum 1a to looped/cyclic peptides of protein X4 of SARS-CoV Urbani [2]: 0.6 | Binding of serum 1b to linear peptides of protein X4 of SARS-CoV Urbani [2]: 0.4 | Binding of serum 1b to looped/cyclic peptides of protein X4 of SARS-CoV Urbani [2]: 0.5 | Binding of serum 2 to linear peptides of protein X4 of SARS-CoV Urbani [2]: 0.4 | Binding of serum 2 to looped/cyclic peptides of protein X4 of SARS-CoV Urbani [2]: 0.5 | Binding of serum 6 to linear peptides of protein X4 of SARS-CoV Urbani [2]: 0.5 | Binding of serum 6 to looped/cyclic peptides of protein X4 of SARS-CoV Urbani [2]: 0.5 | Binding of serum 37 to linear peptides of protein X4 of SARS-CoV Urbani [2]: 0.6 | Binding of serum 37 to looped/cyclic peptides of protein X4 of SARS-CoV Urbani [2]: 0.7 | Binding of serum 62 to linear peptides of protein X4 of SARS-CoV Urbani [2]: 0.7 | Binding of serum 62 to looped/cyclic peptides of protein X4 of SARS-CoV Urbani [2]: 0.6 | Binding of serum London to linear peptides of protein X4 of SARS-CoV Urbani [2]: 0.6 | Binding of serum London to looped/cyclic peptides of protein X4 of SARS-CoV Urbani [2]: 0.3 | Binding of serum SARS-green to linear peptides of protein X4 of SARS-CoV Urbani [2]: 0.5 | Binding of serum SARS-green to looped/cyclic peptides of protein X4 of SARS-CoV Urbani [2]: 0.4 | Binding of serum SARS-yellow to linear peptides of protein X4 of SARS-CoV Urbani [2]: 0.2 | Binding of serum SARS-yellow to looped/cyclic peptides of protein X4 of SARS-CoV Urbani [2]: 0.5 | Rabbit serum linear peptides [3]: 0.4 | Rabbit serum looped peptides [3]: 0.4

RTRSMWSFNPETNIL
Binding of Control Serum Blood-Bank to Looped peptides of the protein M of SARS-CoV Urbani [1]: 0.7 | Binding of Control serum Blood-bank to linear peptides of the protein M of SARS-CoV Urbani [1]: 0.9 | Binding of Control serum LUMC to linear peptides of the protein M of SARS-CoV Urbani [1]: 0.7 | Binding of Control serum LUMC to looped peptides of the protein M of SARS-CoV Urbani [1]: 0.7 | Binding of serum 1a to linear peptides of protein M of SARS-CoV Urbani [2]: 0.9 | Binding of serum 1a to looped/cyclic peptides of protein M of SARS-CoV Urbani [2]: 0.7 | Binding of serum 1b to linear peptides of protein M of SARS-CoV Urbani [2]: 0.8 | Binding of serum 1b to looped/cyclic peptides of protein M of SARS-CoV Urbani [2]: 0.3 | Binding of serum 2 to linear peptides of protein M of SARS-CoV Urbani [2]: 0.8 | Binding of serum 2 to looped/cyclic peptides of protein M of SARS-CoV Urbani [2]: 0.8 | Binding of serum 6 to linear peptides of protein M of SARS-CoV Urbani [2]: 0.4 | Binding of serum 6 to looped/cyclic peptides of protein M of SARS-CoV Urbani [2]: 0.7 | Binding of serum 37 to linear peptides of protein M of SARS-CoV Urbani [2]: 0.9 | Binding of serum 37 to looped/cyclic peptides of protein M of SARS-CoV Urbani [2]: 0.9 | Binding of serum 62 to linear peptides of protein M of SARS-CoV Urbani [2]: 0.9 | Binding of serum 62 to looped/cyclic peptides of protein M of SARS-CoV Urbani [2]: 0.9 | Binding of serum London to linear peptides of protein M of SARS-CoV Urbani [2]: 0.3 | Binding of serum London to looped/cyclic peptides of protein M of SARS-CoV Urbani [2]: 0.2 | Binding of serum SARS-green to linear peptides of protein M of SARS-CoV Urbani [2]: 0.3 | Binding of serum SARS-green to looped/cyclic peptides of protein M of SARS-CoV Urbani [2]: 0.0 | Binding of serum SARS-yellow to linear peptides of protein M of SARS-CoV Urbani [2]: 0.1 | Binding of serum SARS-yellow to looped/cyclic peptides of protein M of SARS-CoV Urbani [2]: 0.7 | Rabbit serum linear peptides [3]: 0.6 | Rabbit serum looped peptides [3]: 0.4
